Test results published in PubChem BioAssay AID330 (DTP/NCI, 2004).
“And” between values parts separate entries of the source, which are not always exact repeats. Equal values may be shown once. Toxic doses and inconclusive results are not listed. The calls were made as follows: active = survival T/C of 150% or more; inactive = T/C below 125% in these data. Square brackets hold non-standard residues; d marks the D form. Peptide text beside a SMILES is read from it. * marks the point of attachment. ξ: configuration not given here. Boc = CC(C)(C)OC(=O)*; ξP = O=C(O)C1CCCN1

Tested on: P388 leukemia ip, CD2F1 mice, survival T/C
Assay: NCI In Vivo Anticancer Drug Screen. Data for tumor model P388 Leukemia (intraperitoneal) in CD2F1 (CDF1) mice
Conditions: endpoint: median survival time, higher = longer survival
How it was run: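 Mice carrying the transplanted tumor received test compound or vehicle. Survival was recorded in each group, and the value is the treated-group measurement divided by that of the vehicle-treated control group.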

[1] = dose: 100.0 mg/kg/injection, schedule: Q01DX001 (ip), vehicle: saline
[2] = dose: 200.0 mg/kg/injection, schedule: Q01DX001 (ip), vehicle: saline
[3] = dose: 400.0 mg/kg/injection, schedule: Q01DX001 (ip), vehicle: saline
[4] = dose: 50.0 mg/kg/injection, schedule: Q01DX005 (ip), vehicle: Klucel (hydroxypropylcellulose) (HPC)
[5] = dose: 100.0 mg/kg/injection, schedule: Q01DX005 (ip), vehicle: Klucel (hydroxypropylcellulose) (HPC)
[6] = dose: 200.0 mg/kg/injection, schedule: Q01DX005 (ip), vehicle: Klucel (hydroxypropylcellulose) (HPC)
[7] = dose: 100.0 mg/kg/injection, schedule: Q01DX001 (ip), vehicle: Klucel (hydroxypropylcellulose) (HPC)
[8] = dose: 200.0 mg/kg/injection, schedule: Q01DX001 (ip), vehicle: Klucel (hydroxypropylcellulose) (HPC)

Measured: T/C

CCOC1CC2(O)c3c(cc4c(c3O)C(=O)c3c(O)ccc(O)c3C4=O)OC2O1 (centres undefined)
inactive: [1] 103 % of control | [2] 109 % of control | [3] 116 % of control

CCOC(=O)c1nn(C)c2oc(=O)ccc12
inactive: dose: 25.0 mg/kg/injection, schedule: Q01DX005 (ip), vehicle: Klucel (hydroxypropylcellulose) (HPC) 106 % of control | [4] 108 % of control | [5] 104 % of control | [6] 104 % of control

COc1ccc(-c2cnnc3c(-c4cccc(C(F)(F)F)c4)cnn23)cc1
inactive: [4] 98 % of control | [5] 93 % of control | [6] 89 % of control

CCN(CC)c1ccc(/C=N/Nc2c3c(nc4ccccc24)CCCC3)cc1
inactive: dose: 6.25 mg/kg/injection, schedule: Q01DX005 (ip), vehicle: saline 100 % of control | dose: 12.5 mg/kg/injection, schedule: Q01DX005 (ip), vehicle: saline 99 % of control

C[N+]1=Nc2cccc3cccc(c23)[N-]1
inactive: dose: 50.0 mg/kg/injection, schedule: Q01DX001 (ip), vehicle: Klucel (hydroxypropylcellulose) (HPC) 111 % of control | [7] 102 % of control | [8] 100 % of control

Cc1ccc2oc3c(ccc(=O)n3C)c(=O)c2c1
inactive: dose: 100.0 mg/kg/injection, schedule: Q04DX002 (ip), vehicle: saline with Tween-80 101 % of control | dose: 200.0 mg/kg/injection, schedule: Q04DX002 (ip), vehicle: saline with Tween-80 100 % of control | dose: 400.0 mg/kg/injection, schedule: Q04DX002 (ip), vehicle: saline with Tween-80 98 % of control

CCOC(=O)NN(C(=O)OCC)C(C)(C)C(C)=O
inactive: [1] 100 % of control | [2] 100 % of control and 106 % of control | [3] 100 % of control and 108 % of control

CN(C)CCOc1cccc2c1C(=O)c1ccccc1C2=O
inactive: dose: 12.5 mg/kg/injection, schedule: Q01DX009 (ip), vehicle: water 113 % of control | dose: 25.0 mg/kg/injection, schedule: Q01DX009 (ip), vehicle: water 105 % of control | dose: 50.0 mg/kg/injection, schedule: Q01DX009 (ip), vehicle: water 107 % of control | dose: 100.0 mg/kg/injection, schedule: Q01DX009 (ip), vehicle: water 109 % of control

COC(=O)C1=CO[C@@H](OC2OC(CO)C(O)C(O)C2O)[C@@H]2[C@H](C)[C@@H](O)[C@@H](O)[C@]12O (some centres undefined)
inactive: dose: 25.0 mg/kg/injection, schedule: Q01DX005 (ip), vehicle: saline 115 % of control | dose: 50.0 mg/kg/injection, schedule: Q01DX005 (ip), vehicle: saline 100 % of control | dose: 100.0 mg/kg/injection, schedule: Q01DX005 (ip), vehicle: saline 106 % of control | dose: 200.0 mg/kg/injection, schedule: Q01DX005 (ip), vehicle: saline 106 % of control

CCCCCCCCCCCCCCCC(=O)N(CC#CCN(CCCN(C)C)C(=O)CCCCCCCCCCCCCCC)CCCN(C)C
inactive: dose: 25.0 mg/kg/injection, schedule: Q01DX009 (ip), vehicle: other 95 % of control | dose: 50.0 mg/kg/injection, schedule: Q01DX009 (ip), vehicle: other 87 % of control

COC(=O)C1CCCN1C(=O)CNC(=O)OC(C)(C)C (stereo not drawn) (Boc-Gly-[ξP]-OMe)
inactive: dose: 50.0 mg/kg/injection, schedule: Q01DX009 (ip), vehicle: saline 105 % of control | dose: 100.0 mg/kg/injection, schedule: Q01DX009 (ip), vehicle: saline 99 % of control | dose: 200.0 mg/kg/injection, schedule: Q01DX009 (ip), vehicle: saline 99 % of control | dose: 400.0 mg/kg/injection, schedule: Q01DX009 (ip), vehicle: saline 90 % of control

CC1(C)CC(OP(=O)(OC2CC(C)(C)N(O)C(C)(C)C2)N2CC2)CC(C)(C)N1O
inactive: [7] 100 % of control | [8] 97 % of control | dose: 400.0 mg/kg/injection, schedule: Q01DX001 (ip), vehicle: Klucel (hydroxypropylcellulose) (HPC) 104 % of control

C[Si](C)(C)Cn1ccc(=O)[nH]c1=O
inactive: dose: 60.0 mg/kg/injection, schedule: Q01DX005 (ip), vehicle: Klucel + Tween-80 94 % of control | dose: 120.0 mg/kg/injection, schedule: Q01DX005 (ip), vehicle: Klucel + Tween-80 92 % of control | dose: 240.0 mg/kg/injection, schedule: Q01DX005 (ip), vehicle: Klucel + Tween-80 98 % of control

CC(=O)c1ccc(-n2c(=O)n(-c3ccccc3)c3nc4cc(C)ccc4nc32)cc1
inactive: dose: 50.0 mg/kg/injection, schedule: Q01DX005 (ip), vehicle: saline with Tween-80 90 % of control | dose: 100.0 mg/kg/injection, schedule: Q01DX005 (ip), vehicle: saline with Tween-80 92 % of control | dose: 200.0 mg/kg/injection, schedule: Q01DX005 (ip), vehicle: saline with Tween-80 98 % of control
